Where two headings read alike, the source gives them in different places.

The values that follow come from patent publication US12479847B2 (DANA-FARBER CANCER INSTITUTE, INC., priority 2019, dated 2025).

What all share (assay): KINOMEscan (ScanMAX) kinase profiling
Common to all, as to format: binding

Experiment [1] has as its target T1, panel of 468 kinases (Homo sapiens, UniProt P00519, H396P).
T1 construct: purchased KINOMEscan (ScanMAX) service
To be noted: 1 μM, read-out: % control.

In experiment [2] the target is T2, panel of 468 kinases (Homo sapiens, UniProt P35916).
T2 construct: purchased KINOMEscan (ScanMAX) service
Conditions: FLT4; 1 μM; read-out: % control.

For experiment [3], the target named is T3, panel of 468 kinases (Homo sapiens, UniProt Q00536).
T3 construct: purchased KINOMEscan (ScanMAX) service
To be noted: PCTK1; 1 μM; read-out: % control.

Experiment [4] addresses T4, panel of 468 kinases (Homo sapiens, UniProt P04626).
T4 construct: purchased KINOMEscan (ScanMAX) service
To be noted: ERBB2; 1 μM; read-out: % control.

The target in experiment [5] is T5, panel of 468 kinases (Homo sapiens, UniProt O43353).
T5 construct: purchased KINOMEscan (ScanMAX) service
To be noted: RIPK2; 1 μM; read-out: % control.

The target of experiment [6] is T6, panel of 468 kinases (Homo sapiens, UniProt Q09013).
T6 construct: purchased KINOMEscan (ScanMAX) service
T6 sequence (Q09013 1-629): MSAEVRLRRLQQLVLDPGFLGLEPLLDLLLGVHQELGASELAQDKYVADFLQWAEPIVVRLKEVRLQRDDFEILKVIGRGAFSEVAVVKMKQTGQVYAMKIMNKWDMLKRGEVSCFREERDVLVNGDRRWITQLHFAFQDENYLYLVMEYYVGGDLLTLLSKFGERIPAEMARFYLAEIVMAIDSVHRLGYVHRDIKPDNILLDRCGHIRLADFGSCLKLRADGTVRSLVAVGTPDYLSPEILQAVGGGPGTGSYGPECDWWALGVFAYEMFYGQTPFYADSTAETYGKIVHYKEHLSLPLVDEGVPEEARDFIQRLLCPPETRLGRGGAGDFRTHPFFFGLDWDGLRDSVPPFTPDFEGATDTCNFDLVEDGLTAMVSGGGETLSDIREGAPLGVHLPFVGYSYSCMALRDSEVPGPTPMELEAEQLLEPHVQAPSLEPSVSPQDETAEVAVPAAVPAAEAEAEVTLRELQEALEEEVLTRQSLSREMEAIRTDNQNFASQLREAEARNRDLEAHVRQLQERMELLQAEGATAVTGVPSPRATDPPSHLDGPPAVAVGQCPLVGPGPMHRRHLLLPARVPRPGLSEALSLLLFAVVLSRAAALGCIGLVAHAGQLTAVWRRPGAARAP
Conditions: DMPK; 1 μM; read-out: % control.

Experiment [7] addresses T7, panel of 468 kinases (Homo sapiens, UniProt Q8NG66).
T7 construct: purchased KINOMEscan (ScanMAX) service
T7 sequence (Q8NG66 1-645): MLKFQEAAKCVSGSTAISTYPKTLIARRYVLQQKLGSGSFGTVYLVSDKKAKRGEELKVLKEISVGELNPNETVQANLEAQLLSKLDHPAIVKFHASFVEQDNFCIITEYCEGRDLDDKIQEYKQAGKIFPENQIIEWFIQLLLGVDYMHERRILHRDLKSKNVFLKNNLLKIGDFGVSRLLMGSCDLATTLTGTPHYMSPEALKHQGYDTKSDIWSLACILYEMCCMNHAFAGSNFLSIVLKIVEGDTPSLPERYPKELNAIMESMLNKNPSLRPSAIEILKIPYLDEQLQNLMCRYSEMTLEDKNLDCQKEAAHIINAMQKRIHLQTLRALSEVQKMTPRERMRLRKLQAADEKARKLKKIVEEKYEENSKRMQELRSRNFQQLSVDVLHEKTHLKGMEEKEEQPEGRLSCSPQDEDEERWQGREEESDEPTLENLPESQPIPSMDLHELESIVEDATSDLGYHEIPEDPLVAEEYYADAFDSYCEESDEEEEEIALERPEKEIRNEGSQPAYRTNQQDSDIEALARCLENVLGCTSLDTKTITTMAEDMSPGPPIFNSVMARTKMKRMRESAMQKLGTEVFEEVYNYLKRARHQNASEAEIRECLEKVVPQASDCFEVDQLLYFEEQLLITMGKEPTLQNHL
Conditions: NEK11; 1 μM; read-out: % control.

Experiment [8] has as its target T8, panel of 468 kinases (Homo sapiens, UniProt Q8NEV4).
T8 construct: purchased KINOMEscan (ScanMAX) service
Conditions: MYO3A; 1 μM; read-out: % control.

The target in experiment [9] is T9, panel of 468 kinases (Homo sapiens, UniProt Q9H2G2).
T9 construct: purchased KINOMEscan (ScanMAX) service
To be noted: SLK; 1 μM; read-out: % control.

T4 sequence (P04626 23-1255): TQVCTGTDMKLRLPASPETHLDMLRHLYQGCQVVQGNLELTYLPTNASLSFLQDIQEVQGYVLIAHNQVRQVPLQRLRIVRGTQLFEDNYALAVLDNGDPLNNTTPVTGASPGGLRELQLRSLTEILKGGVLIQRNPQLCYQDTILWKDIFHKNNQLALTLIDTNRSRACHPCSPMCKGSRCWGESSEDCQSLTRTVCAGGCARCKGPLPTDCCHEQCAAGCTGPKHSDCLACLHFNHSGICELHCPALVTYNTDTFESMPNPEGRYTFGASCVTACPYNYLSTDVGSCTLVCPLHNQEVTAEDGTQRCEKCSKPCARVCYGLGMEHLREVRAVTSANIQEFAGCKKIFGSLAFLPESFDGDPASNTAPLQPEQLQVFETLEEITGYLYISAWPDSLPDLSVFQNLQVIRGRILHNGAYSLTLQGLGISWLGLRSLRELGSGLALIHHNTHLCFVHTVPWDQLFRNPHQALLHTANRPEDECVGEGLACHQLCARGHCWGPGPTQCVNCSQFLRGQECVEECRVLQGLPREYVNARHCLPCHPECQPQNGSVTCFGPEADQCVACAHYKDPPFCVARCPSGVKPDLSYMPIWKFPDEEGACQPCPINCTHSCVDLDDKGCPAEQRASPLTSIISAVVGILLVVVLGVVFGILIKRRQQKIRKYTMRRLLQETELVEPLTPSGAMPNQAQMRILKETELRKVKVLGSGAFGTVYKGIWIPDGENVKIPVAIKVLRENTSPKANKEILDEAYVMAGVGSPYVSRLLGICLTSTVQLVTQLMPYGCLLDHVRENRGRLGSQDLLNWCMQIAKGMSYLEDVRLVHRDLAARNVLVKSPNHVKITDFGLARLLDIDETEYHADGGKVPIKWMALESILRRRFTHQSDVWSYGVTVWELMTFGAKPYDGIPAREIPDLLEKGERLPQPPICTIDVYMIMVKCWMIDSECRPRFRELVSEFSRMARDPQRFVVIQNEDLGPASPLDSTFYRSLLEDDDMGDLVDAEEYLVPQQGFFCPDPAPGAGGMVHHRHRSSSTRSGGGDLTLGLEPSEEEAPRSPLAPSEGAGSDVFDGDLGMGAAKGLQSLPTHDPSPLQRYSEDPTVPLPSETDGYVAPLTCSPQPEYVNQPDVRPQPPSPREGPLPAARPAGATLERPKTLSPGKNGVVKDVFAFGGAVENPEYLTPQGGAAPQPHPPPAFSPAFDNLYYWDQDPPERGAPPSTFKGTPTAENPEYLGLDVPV
T5 sequence (O43353 whole entry): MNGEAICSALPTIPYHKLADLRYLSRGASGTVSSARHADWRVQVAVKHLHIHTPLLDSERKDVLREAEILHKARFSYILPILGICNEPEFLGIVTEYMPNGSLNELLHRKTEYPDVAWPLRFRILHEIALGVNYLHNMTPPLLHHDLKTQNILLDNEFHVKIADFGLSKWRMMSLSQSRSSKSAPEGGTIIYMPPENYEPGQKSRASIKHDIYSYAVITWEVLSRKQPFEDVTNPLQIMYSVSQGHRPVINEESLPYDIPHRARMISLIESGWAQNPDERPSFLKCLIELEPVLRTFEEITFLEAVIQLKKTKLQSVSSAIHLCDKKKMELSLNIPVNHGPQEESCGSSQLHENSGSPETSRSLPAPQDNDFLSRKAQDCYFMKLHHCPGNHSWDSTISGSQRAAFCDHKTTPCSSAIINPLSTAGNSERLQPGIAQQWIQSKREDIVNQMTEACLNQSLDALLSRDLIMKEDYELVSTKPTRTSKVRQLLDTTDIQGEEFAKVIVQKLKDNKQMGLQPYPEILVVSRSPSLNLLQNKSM
T3 sequence (Q00536 whole entry): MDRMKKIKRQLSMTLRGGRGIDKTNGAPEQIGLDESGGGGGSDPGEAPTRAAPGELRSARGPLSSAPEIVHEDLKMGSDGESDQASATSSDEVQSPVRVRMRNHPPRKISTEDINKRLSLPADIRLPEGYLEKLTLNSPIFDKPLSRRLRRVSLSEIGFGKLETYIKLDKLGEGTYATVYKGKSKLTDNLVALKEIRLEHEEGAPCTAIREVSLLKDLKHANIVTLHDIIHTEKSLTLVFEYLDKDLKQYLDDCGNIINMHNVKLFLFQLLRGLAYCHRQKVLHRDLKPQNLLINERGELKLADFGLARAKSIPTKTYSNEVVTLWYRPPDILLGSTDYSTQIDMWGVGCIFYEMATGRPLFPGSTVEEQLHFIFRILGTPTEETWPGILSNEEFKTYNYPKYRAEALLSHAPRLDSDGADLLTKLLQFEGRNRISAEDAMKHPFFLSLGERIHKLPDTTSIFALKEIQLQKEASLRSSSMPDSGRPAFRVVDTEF
T2 sequence (P35916 25-1363): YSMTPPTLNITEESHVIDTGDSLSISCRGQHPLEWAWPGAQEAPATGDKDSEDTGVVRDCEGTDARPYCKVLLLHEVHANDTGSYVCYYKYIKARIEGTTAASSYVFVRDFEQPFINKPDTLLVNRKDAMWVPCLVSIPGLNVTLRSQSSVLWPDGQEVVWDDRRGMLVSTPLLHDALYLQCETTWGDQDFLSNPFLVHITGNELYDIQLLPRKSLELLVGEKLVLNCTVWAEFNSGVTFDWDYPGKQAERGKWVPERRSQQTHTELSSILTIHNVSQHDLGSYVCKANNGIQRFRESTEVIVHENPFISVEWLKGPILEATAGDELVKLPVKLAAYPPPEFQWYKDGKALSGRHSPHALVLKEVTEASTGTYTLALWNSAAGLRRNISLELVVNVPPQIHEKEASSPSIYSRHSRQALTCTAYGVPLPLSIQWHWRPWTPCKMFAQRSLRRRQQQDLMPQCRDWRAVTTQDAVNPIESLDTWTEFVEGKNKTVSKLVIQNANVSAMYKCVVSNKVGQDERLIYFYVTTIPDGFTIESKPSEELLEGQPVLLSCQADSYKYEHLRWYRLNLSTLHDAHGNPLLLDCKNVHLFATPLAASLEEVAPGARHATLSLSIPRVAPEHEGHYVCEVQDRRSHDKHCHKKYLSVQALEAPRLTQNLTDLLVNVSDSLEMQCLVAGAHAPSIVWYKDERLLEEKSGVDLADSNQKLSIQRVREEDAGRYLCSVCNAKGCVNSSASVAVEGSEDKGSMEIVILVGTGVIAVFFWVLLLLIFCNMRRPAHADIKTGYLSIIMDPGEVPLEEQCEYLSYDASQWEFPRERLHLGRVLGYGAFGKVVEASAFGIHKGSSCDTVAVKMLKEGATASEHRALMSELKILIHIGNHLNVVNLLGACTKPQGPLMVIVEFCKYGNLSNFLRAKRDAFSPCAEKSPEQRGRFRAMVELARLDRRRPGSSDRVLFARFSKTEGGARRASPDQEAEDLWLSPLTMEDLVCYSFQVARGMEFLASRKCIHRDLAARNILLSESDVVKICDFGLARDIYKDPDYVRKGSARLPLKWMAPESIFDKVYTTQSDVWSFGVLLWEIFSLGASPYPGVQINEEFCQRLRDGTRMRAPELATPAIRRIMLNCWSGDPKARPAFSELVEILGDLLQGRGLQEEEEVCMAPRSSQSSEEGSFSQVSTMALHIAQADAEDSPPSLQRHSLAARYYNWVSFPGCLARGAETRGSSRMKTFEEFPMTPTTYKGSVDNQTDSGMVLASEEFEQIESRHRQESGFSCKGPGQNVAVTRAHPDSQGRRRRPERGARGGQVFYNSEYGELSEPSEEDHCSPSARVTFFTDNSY
T9 sequence (Q9H2G2 whole entry): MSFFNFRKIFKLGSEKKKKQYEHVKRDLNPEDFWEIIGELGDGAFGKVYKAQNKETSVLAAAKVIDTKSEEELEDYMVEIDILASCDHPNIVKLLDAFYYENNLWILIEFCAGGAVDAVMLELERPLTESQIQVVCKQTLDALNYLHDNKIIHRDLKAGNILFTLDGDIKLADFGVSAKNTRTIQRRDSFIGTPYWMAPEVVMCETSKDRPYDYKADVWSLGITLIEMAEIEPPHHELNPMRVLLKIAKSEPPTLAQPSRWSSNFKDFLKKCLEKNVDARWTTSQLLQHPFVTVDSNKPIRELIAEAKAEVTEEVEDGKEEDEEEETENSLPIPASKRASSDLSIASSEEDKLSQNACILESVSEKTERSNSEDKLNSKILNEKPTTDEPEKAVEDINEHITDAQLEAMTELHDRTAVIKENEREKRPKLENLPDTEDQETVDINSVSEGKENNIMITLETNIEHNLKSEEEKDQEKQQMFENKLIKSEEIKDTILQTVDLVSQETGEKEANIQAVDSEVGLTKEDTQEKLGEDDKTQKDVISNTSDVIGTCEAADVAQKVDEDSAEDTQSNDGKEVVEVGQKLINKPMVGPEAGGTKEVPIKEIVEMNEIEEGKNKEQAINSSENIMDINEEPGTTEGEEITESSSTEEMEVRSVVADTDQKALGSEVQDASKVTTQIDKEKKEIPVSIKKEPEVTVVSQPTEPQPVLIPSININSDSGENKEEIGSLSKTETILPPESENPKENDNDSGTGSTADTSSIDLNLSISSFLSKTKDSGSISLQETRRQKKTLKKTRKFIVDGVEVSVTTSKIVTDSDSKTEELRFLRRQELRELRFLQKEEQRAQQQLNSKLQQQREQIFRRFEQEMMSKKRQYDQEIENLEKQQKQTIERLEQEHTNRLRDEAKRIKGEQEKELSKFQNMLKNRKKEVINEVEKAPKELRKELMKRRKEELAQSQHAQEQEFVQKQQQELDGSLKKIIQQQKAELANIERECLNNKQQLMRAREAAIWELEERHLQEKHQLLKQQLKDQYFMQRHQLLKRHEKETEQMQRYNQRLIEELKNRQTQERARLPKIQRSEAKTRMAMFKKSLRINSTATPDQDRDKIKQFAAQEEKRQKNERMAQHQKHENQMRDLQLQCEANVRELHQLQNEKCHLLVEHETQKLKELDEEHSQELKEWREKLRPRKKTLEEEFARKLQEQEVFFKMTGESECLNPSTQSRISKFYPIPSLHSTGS

On to `CNc1nc(Nc2ccc(C(=O)N3CCC(N4CCOCC4)CC3)c3c2OCO3)nc2[nH]cc(Cl)c12` [Compound 75, (7-((5-chloro-4-(methylamino)-7H-pyrrolo[2,3-d]pyrimidin-2-yl)amino)benzo[d][1,3]dioxol-4-yl)(4-morpholinopiperidin-1-yl)methanone], for which the remaining binding at 1 µM in experiment [1] (ABL1(H396P)-nonphosphorylated) came out at 99%; in experiment [1] (ABL1(H396P)-phosphorylated), 82%; in experiment [2], 100%; in experiment [3] it was 60%; in [4] it was 85%; in [5], 100%. The remaining binding at 1 µM in experiment [6] came out at 100%; in [7], 100%; in experiment [8], 98%; in experiment [9], 100%.

Consider `CNc1nc(Nc2ccc(P3(=O)CCN(C4CCOCC4)CC3)cc2OC)nc2[nH]cc(Cl)c12` [Compound 77, 4-(4-((5-chloro-4-(methylamino)-7H-pyrrolo[2,3-d]pyrimidin-2-yl)amino)-3-methoxyphenyl)-1-(tetrahydro-2H-pyran-4-yl)-1,4-azaphosphinane 4-oxide], for which the remaining binding at 1 µM was 100% in experiment [1] (ABL1(H396P)-nonphosphorylated); 75% in experiment [1] (ABL1(H396P)-phosphorylated); 100% in experiment [2]; 84% in experiment [3]; 99% in experiment [4]; 100% in experiment [5]. The remaining binding at 1 µM was 100% in [6], 100% in experiment [7], 62% in experiment [8] and 100% in [9].

`CNc1nc(Nc2ccc(S(=O)(=O)N3CCC(N4CCOCC4)CC3)cc2OC)nc2[nH]cc(Cl)c12` [Compound 12, 5-chloro-N2-(2-methoxy-4-((4-morpholinopiperidin-1-yl)sulfonyl)phenyl)-N4-methyl-7H-pyrrolo[2,3-d]pyrimidine-2,4-diamine]: the remaining binding at 1 µM in experiment [1] (ABL1(H396P)-nonphosphorylated) was determined as 100%; in experiment [1] (ABL1(H396P)-phosphorylated), 73%; in [2], 100%; in experiment [3], 64%; in [4] it was 80%; in experiment [5], 100%. The remaining binding at 1 µM in experiment [6] turned out to be 97%; in [7], 96%; in experiment [8] it was 100%; in [9], 100%.
